Assay results published in patent publication US11524051B2, “Methods of treating fungal infections” (United States of America as represented by the Secretary of …, priority 2017, dated 2022).
Square brackets hold non-standard residues; d marks the D form. Ends that are not written are not given here. Peptide text beside a SMILES is read from it.

Legend:
human red blood cells = assay: Hemolysis assay; assay type: cell-based; details: 1 hour at 37° C., versus untreated controls
Protocol: The hemolytic activity of BmKn2, dBmKn2, Kn2-7, dKn2-7, and melittin was assessed using human red blood cells (RBCs). The RBCs were prepared from human whole blood (BioreclamationIVT, Westbury, N.Y., USA) according to a previous report (Evans et al, J. Vis. Exp. (73), 50166, doi:10.3791/50166 (2013)). In brief, human whole blood was centrifuged, and the RBCs were washed with PBS 3-4 times and then diluted 1:20 of the original volume in PBS. Peptides at various concentrations from 0-400 μg/mL in PBS were mixed with an equal volume of the diluted RBCs in a 96-well microtiter plate and allowed to incubate for 1 hour at 37° C. The plate was then centrifuged at 500 g for 5 minutes and 100 μL of the supernatant was transferred to a 96-well, transparent, flat-bottomed plate. Sample absorbances were read at 490 nm using a BioTek Synergy HT plate reader (BioTek, Winooski, Vt.). PBS was used as a negative control (blank), and 1% Triton X-100 was used as a positive control for 100% hemolysis. The percent hemolysis for the unknown samples was calculated according to the following equation: […]

[1] = Stability of peptides in human serum (LC-MS); assay type: in vitro ADME; details: 37° C.; for remaining at 24 h, 50 μg/mL: 25% human serum (v/v), pH 7, 25% human serum in RPMI 1640, after 24 hours, read-out: peptide remaining, percent of t0; for reduction of peptide amount: 100% culture medium (RPMI 1640), 24 hours, 50 μg/mL
Protocol: The stability of Kn2-7 and dKn2-7 (50 μg/mL) were studied in 25% human serum (v/v) (BioreclamationIVT, Westbury, N.Y., USA) in 1640 RPMI media (made with 165 mM MOPS, pH 7.0) or in 100% 1640 RPMI medium at 37° C. (H. Jenssen, S. I. Aspmo, Serum stability of peptides, Peptide-Based Drug Design (2008) 177-186.) At predetermined time points, 100 μL aliquots of each solution was removed and thoroughly mixed with 200 μL of 96% ethanol. This was incubated on ice for 15 minutes followed by centrifugation at 10,000 g for 5 minutes to pellet the precipitated proteins. The supernatant (200 μL) was carefully removed, spiked with peptide 1018 (VRLIVAVRIWRR; SEQ ID NO. 3) at 1 μg/mL as the internal standard, and stored at −20° C. prior to liquid chromatography-mass spectrometry (LC/MS) analysis. Peptide 1018 is a synthetic peptide derived from bactenecin, a bovine neutrophil host defense peptide. (Mansour, S. C., et al. (2015) J. Pept. Sci., 21, 323-329. doi: 10.1002/psc.2708. The peptide sequence was synthesized by Genemed Synthesis Inc. (San Antonio, Tex.).
Liquid chromatography was performed on a Shimadzu HPLC system (Shimadzu Scientific Instruments, Inc., Columbia, Md.). A 10-μl aliquot of the sample was injected into an Agilent ZORBAX Eclipse XDB 80 Å C18 (2.1×50 mm, 5 μm) column (Agilent, Santa Clara, Calif.) held at 40° C. Mass spectrometric analysis was carried out on an AB Sciex API 4000 mass spectrometer (AB Sciex, Framingham, Mass.) with an electrospray ionization (ESI) interface and triple quadrupole mass analyzer. The peak areas of Kn2-7 and dKn2-7 on the LC-MS chromatograms were standardized to the peak area for peptide 1018.

C. albicans = test system: C. albicans; set-up: unit not given beside the values; details: compared with dKn2-7; cited from earlier work

Compound | concentration at which a significant increase in hemolysis starts (human red blood cells) [µg/mL] | remaining at 24 h, 50 μg/mL [1] [%] | reduction of peptide amount [1] | MIC against C. albicans, times higher than dKn2-7 (C. albicans) [×]
FIGAIARLLSKIF [BmKn2, FIGAIARLLSKIF (SEQ ID NO. 1)] | 100 |  |  | 
CC[C@@H](C)[C@@H](NC(=O)[C@H](N)Cc1ccccc1)C(=O)NCC(=O)N[C@H](C)C(=O)N[C@@H](C(=O)N[C@H](C)C(=O)N[C@H](CCCNC(=N)N)C(=O)N[C@H](CC(C)C)C(=O)N[C@H](CC(C)C)C(=O)N[C@H](CO)C(=O)N[C@H](CCCCN)C(=O)N[C@@H](C(=O)N[C@H](Cc1ccccc1)C(=O)O)[C@H](C)CC)[C@H](C)CC [dBmKn2] (H-[dF][dI]G[dA][dI][dA][dR][dL][dL][dS][dK][dI][dF]-OH; N-terminus and C-terminus assumed) | 100 |  |  | 
FIKRIARLLRKIF [Kn2-7, FIKRIARLLRKIF (SEQ ID NO. 2)] | 200 | ~9 | about 20% | 
LL-37: well-studied LL-37 peptide |  |  |  | ~3
CC[C@H](C)[C@H](NC(=O)CN)C(=O)NCC(=O)N[C@@H](C)C(=O)N[C@H](C(=O)N[C@@H](CC(C)C)C(=O)N[C@@H](CCCCN)C(=O)N[C@H](C(=O)N[C@@H](CC(C)C)C(=O)N[C@H](C(=O)N[C@H](C(=O)NCC(=O)N[C@@H](CC(C)C)C(=O)N1CCC[C@H]1C(=O)N[C@@H](C)C(=O)N[C@@H](CC(C)C)C(=O)N[C@H](C(=O)N[C@@H](CO)C(=O)N[C@@H](Cc1c[nH]c2ccccc12)C(=O)N[C@H](C(=O)N[C@@H](CCCCN)C(=O)N[C@@H](CCCNC(=N)N)C(=O)N[C@@H](CCCCN)C(=O)N[C@@H](CCCNC(=N)N)C(=O)N[C@@H](CCC(N)=O)C(=O)N[C@@H](CCC(N)=O)C(N)=O)[C@@H](C)CC)[C@@H](C)CC)[C@@H](C)O)[C@@H](C)O)C(C)C)C(C)C [melittin, reference compound] | ≥ 3.125 |  |  | 
CC[C@@H](C)[C@@H](NC(=O)[C@H](N)Cc1ccccc1)C(=O)N[C@H](CCCCN)C(=O)N[C@H](CCCNC(=N)N)C(=O)N[C@@H](C(=O)N[C@H](C)C(=O)N[C@H](CCCNC(=N)N)C(=O)N[C@H](CC(C)C)C(=O)N[C@H](CC(C)C)C(=O)N[C@H](CCCNC(=N)N)C(=O)N[C@H](CCCCN)C(=O)N[C@@H](C(=O)N[C@H](Cc1ccccc1)C(=O)O)[C@H](C)CC)[C@H](C)CC [dKn2-7] (H-[dF][dI][dK][dR][dI][dA][dR][dL][dL][dR][dK][dI][dF]-OH; N-terminus and C-terminus assumed) | 200 | ~43 | about 20% | 
